Laboratory results from ChEMBL document CHEMBL1157539, “Thousands of chemical starting points for antimalarial lead identification” (Nature, 2010).

Test system: Plasmodium falciparum
Assay: GSK_TCMDC: Inhibition of Plasmodium falciparum 3D7 in whole erythrocytes, using parasite LDH activity as an index of growth.
Format: functional, organism-based
Settings: Plasmodium falciparum, 3D7

In order of falling XC50:
1. O=C(NCc1ccc(Cl)cc1)c1ccc(CN2CCCN(CC3CCCCC3)CC2)cc1  1.7 µM
2. COc1ccc2nccc([C@@H](O)CN3CCC(NCc4ccc5c(c4)NC(=O)CO5)CC3)c2c1  1.66 µM
3. O=S(=O)(Nc1ccc(CCN2CCCCC2CCN2CCCC2)cc1)c1cccc2cccnc12 (stereo not drawn)  1.3 µM
4. Cc1ccc(NC(=O)c2cccc(N3CCN(c4ccncc4)CC3)c2)cc1F  1.3 µM
5. O=C(Nc1ccc([N+](=O)[O-])cc1Cl)c1cc(Br)cc(Cc2ccccc2)c1O  1.29 µM
6. CCCC(C)NC(=O)/C=C/c1ccccc1-c1cccc(OC)c1 (stereo not drawn)  1.25 µM
7. CC(C)(C)c1ccc(CN2CCC(CNC(=O)c3cc(-c4ccccc4C(F)(F)F)cs3)C2)cc1 (stereo not drawn)  1.24 µM
8. CC1=C(C(=O)Nc2ccccc2)C(c2ccc([N+](=O)[O-])cc2)n2ncc(C(=O)Nc3ccccc3)c2N1 (stereo not drawn)  1.24 µM
9. CCc1sc(N2CCN(C)CC2)nc1C(=O)NCCc1ccc(Cl)c(Cl)c1  1.18 µM
10. Fc1ccc(COc2ccc(Nc3ncnc4ccc(I)cc34)cc2Cl)cc1  1.18 µM
11. Cc1ccc(CN2CCCN(Cc3cccc(C(=O)Nc4ccc(C(C)(C)C)cc4)c3)CC2)s1  1.13 µM
12. O=C(C=Cc1ccc(Cl)c(Cl)c1)NCCCCCN1CCCC(CCCNC(=O)C2CC2c2ccccc2)C1 (stereo not drawn)  1.13 µM
13. CCCN(CCCCNC(=O)c1ccc(-c2cccnc2)cc1)C1CCc2c(O)cccc2C1 (stereo not drawn)  1.12 µM
14. O=C(Nc1ccc(Cl)cc1)c1cc(Cl)ccc1NC(=O)C1(c2ccc(Cl)cc2)CCCC1  1.1 µM
15. O=C(/C=C/c1ccc(Cl)c(Cl)c1)N1CCC(NCc2c[nH]c3ccccc23)CC1  1.07 µM
16. CCC(CC)(CCC#N)CN(C[C@@H](O)[C@H](Cc1ccccc1)NC(=O)OC(C)(C)C)S(=O)(=O)c1ccc(OC)cc1  1.04 µM
17. Nc1c(Cl)cc(C(O)CNCCCCCOCCc2ccc3ccccc3n2)cc1Cl (stereo not drawn)  1.02 µM
18. S=C(NCCN1CCOCC1)Nc1ccccc1  1.02 µM
19. COc1ccc(Nc2nccc(N3CCC(NC(=O)C(C)c4ccc(Cl)cc4)C3)n2)cc1 (stereo not drawn)  1.01 µM
20. O=C(/C=C/c1ccc(C(F)(F)F)cc1)NCCCCCN1CCN(C(=O)Nc2ccc(Cl)cc2)CC1  1.01 µM
21. Cc1ccccc1Nc1nc(Nc2ccccc2)c2ccccc2n1  0.998 µM
22. Cc1c(C(=O)N2CCc3cc4nccc(N5CCN6CCC[C@H]6C5)c4cc32)cnn1-c1ccc(C#N)cc1  0.994 µM
23. C[C@@H](C(N)=O)N1CCCCC1c1ccc(OCc2cccc(F)c2)cc1 (stereo partly drawn)  0.989 µM
24. O=C(/C=C/c1ccc(Cl)c(Cl)c1)NC1CCC(CN2CCC(c3cc4ccccc4[nH]3)CC2)CC1 (stereo not drawn)  0.987 µM
25. Cc1ccc2sc(N(CCCn3ccnc3)C(=O)c3ccco3)nc2c1C  0.966 µM
26. NC(=O)c1c(Cl)nc2ccccc2c1Cl  0.96 µM
27. COc1ccccc1C1CCN(Cc2csc(NC(=O)c3ccc(-c4ccc(C(F)(F)F)cc4)cc3)n2)CC1  0.954 µM
28. O=S(=O)(Nc1cccc(CCN2CCC(N3CCCCC3)CC2)c1)c1cccc2ccccc12  0.937 µM
29. N#Cc1ccc(N(CC(=O)NCCc2ccc(F)cc2)CC2CC2)c2ccccc12  0.932 µM
30. CN(C)Cc1ccc(-c2cccc(NC(=O)c3ccc(Cl)cc3)c2)cc1  0.9 µM
31. Fc1cccc(COc2ccc(Nc3ncnc4sc(C#CCNC5CCC5)cc34)cc2Cl)c1  0.875 µM
32. CS(=O)(=O)Nc1ccc2[nH]cc(C3CC4CCC(C3)N4CC3CCC(NC(=O)/C=C/c4ccc(Cl)c(Cl)c4)CC3)c2c1 (stereo not drawn)  0.872 µM
33. COc1ccc(S(=O)(=O)Nc2cc(C)cc(Br)c2OC)cc1N1CCN(C(=O)C(Cl)(Cl)Cl)CC1  0.871 µM
34. CN1CCCN(Cc2ccc(-c3ccc(NC(=O)c4cccc(Cl)c4)cc3)cc2)CC1  0.859 µM
35. CC(C)CCCC(C)(C)NC[C@@H](O)[C@H](Cc1ccccc1)NC(=O)c1cccc(OCC2CC2)c1  0.843 µM
36. NCCNS(=O)(=O)c1ccc(-c2ccnc3[nH]c(-c4ccncc4)cc23)cc1  0.84 µM
37. COc1ccc(CNC2Cc3ccccc3C2)cc1-c1ccc(S(=O)(=O)NCc2ccccc2)s1  0.832 µM
38. Cc1cc2nc(-c3cccc(C(=O)NC4CCN(Cc5ccccc5)CC4)c3)[nH]c2cc1C  0.828 µM
39. COc1ccc(NC(=O)c2ccc(-c3nc(-c4cccc(C(F)(F)F)c4)cs3)cc2)cc1N1CCN(C)CC1  0.818 µM
40. COc1ccc(CNCc2ccc(F)cc2)cc1-c1cccc(S(=O)(=O)NCCN2CCCC2)c1  0.805 µM
41. O=C(/C=C/c1ccc(Cl)c(Cl)c1)NCCCCCCN1CCCN(C(=O)Nc2cccc(C(F)(F)F)c2)CC1  0.793 µM
42. COc1cccc(CNC[C@@H](O)[C@H](Cc2ccccc2)NC(=O)c2cc(NC(C)C)cc(N3CCCCS3(=O)=O)c2)c1  0.784 µM
43. COc1ccc(C(=O)Nc2ccc3nc(N4CCCCC4)cc(C)c3c2)cc1[N+](=O)[O-]  0.779 µM
44. Cc1csc(-c2ccc3[nH]cc(C4=CCN(C)CC4)c3c2)n1  0.754 µM
45. N#Cc1c(Cl)cccc1Oc1ccc(S(=O)(=O)N2CCC(CN3CCC(c4c[nH]c5ccccc45)CC3)CC2)cc1  0.745 µM
46. CN(CCCCNC(=O)c1ccc(-c2ccccc2)cc1)C1CCc2c(O)cccc2C1 (stereo not drawn)  0.724 µM
47. Cn1ccnc1CNC(=O)c1ccc(-c2cccc(-c3nc4cc(C(F)(F)F)ccc4[nH]3)c2)cc1  0.723 µM
48. O=C(/C=C/c1ccc(Cl)c(Cl)c1)NCCCCCN1CCC(NC(=O)NCCc2ccccc2)CC1  0.722 µM
49. Nc1ncc(-c2ccc(NC(=O)Nc3cc(C(F)(F)F)ccc3F)cc2)c(N)n1  0.719 µM
50. CNCc1cccc2nc(-c3csc(Cc4cc(Cl)ccc4OCC(C)C)n3)[nH]c12  0.718 µM
51. O=C(/C=C/c1ccc(Cl)c(Cl)c1)N1CCN(C(=O)Nc2cccc(C(F)(F)F)c2)CC1  0.704 µM
52. O=C(Nc1cccc(-c2ccc(-c3nc4cc(F)ccc4[nH]3)s2)c1)c1ccncc1  0.703 µM
53. COc1ccc(OC)c(NC(=O)c2c(-c3c(F)cccc3Cl)noc2C)c1  0.701 µM
54. N#Cc1ccc2c(c1)CCN(CCC1CCC(NC(=O)/C=C/c3c[nH]c4ccc(F)cc34)CC1)CC2 (stereo not drawn)  0.692 µM
55. CC(C)c1cccc(OCC2CCN(c3ncc(C(=O)NC4CC4)cc3Cl)CC2)c1  0.681 µM
56. Cc1ccc(Nc2nccc(NCC(O)c3cccc(F)c3)n2)cc1 (stereo not drawn)  0.675 µM
57. CC(CN1CCN(CC(c2ccc(F)cc2)N2CCN(C)CC2)CC1)C(=O)c1ccc(O)cc1 (stereo not drawn)  0.672 µM
58. FC(F)(F)c1ccc(NC(=S)N2CCC(CN3CCC(c4c[nH]c5ccccc45)CC3)CC2)cc1  0.663 µM
59. COc1ccc(NC(=O)c2csc(-c3cc(NC(=O)c4ccnc(N5CCCC5)c4)ccc3C)c2)cc1N1CCN(C)CC1  0.66 µM
60. CCCCCOc1ccc(CC(C)NCC(O)c2cccc(Cl)c2)cc1 (stereo not drawn)  0.653 µM
61. O=C(NC1CCCCC1)N(Cc1cccc(-c2ccc(CNCCc3ccccc3)cc2)c1)C1CCN(Cc2ccccc2)CC1  0.65 µM
62. O=C(Nc1cccc(-c2cccc(-c3nc4ccccc4[nH]3)c2)c1)c1cccnc1  0.646 µM
63. CCOC(=O)c1c(SCc2cccc(F)c2F)[nH]c2ccccc2c1=O  0.644 µM
64. O=C(Nc1ccc(Cl)c(Cl)c1)N1CCc2cc3nccc(N4CCN5CCC[C@H]5C4)c3cc21  0.628 µM
65. CC(C)c1ccc(NC(=O)c2ccc(CN3CCCN(CC4CCCCC4)CC3)cc2)cc1  0.615 µM
66. CC(C)C[C@@H](C(=O)N[C@H](C(=O)Nc1nccs1)C(C)(C)C)[C@H](CCC(F)(F)F)N(O)C=O  0.598 µM
67. COC1CCC(C(=O)Nc2ccc(-c3cccc(-c4nc5cccc(C)c5[nH]4)c3)cc2)CC1 (stereo not drawn)  0.585 µM
68. COc1ccccc1NC(=O)Nc1cccc(-c2ccc(-c3nc4cccc(C)c4[nH]3)s2)c1  0.579 µM
69. NC(=O)c1cnc2cc(-c3ccoc3)ccc2c1Nc1ccc(NC(=O)Nc2ccccc2Cl)cc1  0.538 µM
70. Cc1ccc2nc(C)n(C3CCN(C(=O)Cc4ccc(F)c(F)c4)CC3)c2c1  0.474 µM
71. COc1ccc(CCNCCCCNCCc2ccc(OC)c3ccccc23)c2ccccc12  0.453 µM
72. CN(C)c1cccc(CCNCCc2c[nH]c3ccc(Cl)cc23)c1  0.436 µM
73. CN(CCCCCN1CCC(NC(=O)Nc2ccc(Oc3ccccc3)cc2)C1)C(=O)/C=C/c1ccc(Cl)c(Cl)c1 (stereo not drawn)  0.421 µM
74. O=C(NCCCCN1CCC(c2ccc3c(c2OCCO)CCCC3)CC1)c1ccc2oc(-c3ccc(C(F)(F)F)cc3)cc2c1  0.34 µM
75. COc1ccc(-c2cc(C(=O)N3CCc4ccccc43)c3ccccc3n2)cc1OC  0.327 µM
76. O=C(Nc1ccccc1)c1ccc(N2CCC(COc3cccc(C(F)(F)F)c3)CC2)nc1  0.298 µM
77. COc1cc2nc(NCCc3ccccc3)nc(NC(C)c3ccccc3)c2cc1OC (stereo not drawn)  0.281 µM
78. Cc1[nH]c(C)c(-c2ccc(-c3ccc(OC(F)(F)F)cc3)nc2)c(=O)c1Br  0.249 µM
79. O=C(Nc1ccc(-c2cccc(-c3nc4ccccc4[nH]3)c2)cc1)Nc1ccsc1  0.246 µM
80. CO/N=C(\C)c1ccc2c(c1)CCN(CCC1CCC(NC(=O)c3cccc(-c4noc(C)n4)c3)CC1)CC2 (stereo not drawn)  0.244 µM
81. CN1CCN(c2ccnc3ccc(NC(=O)Cc4ccc(-c5ccncc5)c5ccccc45)cc23)CC1  0.203 µM
82. O=C(O)C[C@H](NC(=O)c1cc(-c2ccc3c(c2)OCO3)no1)C(=O)O.O=C(O)C[C@H](NC(=O)c1conc1-c1ccc2c(c1)OCO2)C(=O)O  0.194 µM
83. COc1ccc2nccc([C@@H](O)CN3CCC(NC(=O)C(c4cc5ccccc5o4)N4CCN(Cc5ccccc5)CC4)CC3)c2c1 (stereo partly drawn)  0.163 µM
84. c1ccc2c(Nc3ccc(Cc4ccc(Nc5c6ccccc6nc6ccccc56)cc4)cc3)c3ccccc3nc2c1  0.162 µM
85. CN1CCC(N(Cc2ccc(-c3ccc(C(F)(F)F)cc3)cc2)C(=O)Cn2c(SCc3cccc(F)c3F)cc(=O)c3c2CCC3)CC1  0.161 µM
86. CC(=O)Nc1ccc(CN(Cc2cccc(OC(C)(C)C)c2)Cc2ccc3c(c2)OCCO3)cc1  0.136 µM
87. CCCCN(CCCC)CCCN(CCCN(CCCC)CCCC)c1cc(C)nc(Nc2ccc(Br)cc2)n1  0.131 µM
88. CC1(C)N=C(N)N=C(N)N1OCc1cc2ccccc2cc1CON1C(N)=NC(N)=NC1(C)C  0.126 µM
89. COc1ccc(C(=O)N2CCC3(CC2)C(=O)N(CC(=O)NCC2CCCCC2)CN3c2ccccc2)c(OC)c1  0.119 µM
90. COc1ccc(CNc2ncc(-c3ccsc3)c(-c3nccs3)n2)cc1OC  0.089 µM
91. CCCc1cc(Cc2cnc(N)nc2N)cc(CCC)c1OCCCCCC(=O)OCC  0.0517 µM
92. CC1(C)NC(N)=NC(=N)N1OCCCNC(=O)c1ccc(C(=O)NCCCON2C(=N)N=C(N)NC2(C)C)cc1  0.0216 µM
93. Nc1nc(N)c2c(Cl)c(CNc3cccc(C(=O)O)c3)ccc2n1  0.00888 µM
